Assay results from PubChem BioAssay (NCI).
Where “and” joins values, the source holds several entries; their conditions need not be identical. Identical values can stand only once.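 The compound was tested at five concentrations on cells cultured in 96-well plates, with a 48-hour exposure period. The concentration for 50% growth inhibition is given as GI50. The concentration for full growth arrest is given as TGI.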

Assays:
Test in all cases: growth of human tumour cells (NCI), 48 h
OVCAR-4 ovarian = test system: OVCAR-4 ovarian
SF-268 CNS = test system: SF-268 CNS
M14 melanoma = test system: M14 melanoma
COLO 205 colon = test system: COLO 205 colon
SK-OV-3 ovarian = test system: SK-OV-3 ovarian
SK-MEL-5 melanoma = test system: SK-MEL-5 melanoma
SK-MEL-28 melanoma = test system: SK-MEL-28 melanoma
SNB-19 CNS = test system: SNB-19 CNS
UACC-257 melanoma = test system: UACC-257 melanoma
PC-3 prostate = test system: PC-3 prostate

Row | SMILES | TGI (OVCAR-4 ovarian) [µM] | TGI (SF-268 CNS) [µM] | TGI (M14 melanoma) [µM] | TGI (COLO 205 colon) [µM] | TGI (SK-OV-3 ovarian) | TGI (SK-MEL-5 melanoma) [µM] | TGI (SK-MEL-28 melanoma) [µM] | TGI (SNB-19 CNS) [µM] | TGI (UACC-257 melanoma) [µM] | TGI (PC-3 prostate) [µM] | GI50 (SNB-19 CNS) [µM] | GI50 (UACC-257 melanoma) [µM] | GI50 (OVCAR-4 ovarian) [µM] | GI50 (SF-268 CNS) [µM] | GI50 (COLO 205 colon) [µM] | GI50 (SK-OV-3 ovarian) [µM] | GI50 (SK-MEL-5 melanoma) | GI50 (PC-3 prostate) [µM] | GI50 (SK-MEL-28 melanoma) [µM] | GI50 (M14 melanoma) [µM]
1 | Cc1[nH]c(=O)n2c(C)nnc2c1C(=O)Nc1cc(Cl)cc(Cl)c1 | > 100 | > 100 | > 100 | 79.4 | 70.7 µM | 31 | 60.8 |  |  |  |  |  |  |  |  |  |  |  |  | 
2 | CN(C)CCNC(=O)c1cccc2[nH]c(-c3cccnc3)nc12 | 88.9 | 98.7 | 43.8 | 32.5 | 80.3 µM | 30.8 | 83.8 | > 100 | 39.9 |  |  |  |  |  |  |  |  |  |  | 
3 | O=[N+]([O-])c1cc(C2SCc3nc4ccccc4n32)ccc1Cl (configuration not stated) |  | 81.1 |  | 46.6 | 66.2 µM | 28.3 | > 100 | > 100 | 53.1 |  |  |  |  |  |  |  |  |  |  | 
4 | C=C1C(=O)OC2C=C(CCC(C)=O)C(C)C(OC(C)=O)CC12 (configuration not stated) | 27.7 | 32.8 | 20.7 |  |  |  | 20.8 | 37.2 |  |  |  |  |  |  |  |  |  |  |  | 
5 | Fc1ccccc1C1SCc2nc3ccccc3n21 (configuration not stated) |  | > 100 |  | > 100 | > 100 µM | 42.9 | > 100 | > 100 | > 100 |  |  |  |  |  |  |  |  |  |  | 
6 | c1ccc2cc3[s+]snc3cc2c1 | > 100 | > 100 | > 100 | > 100 | > 100 µM | > 100 | > 100 | > 100 | > 100 |  |  |  |  |  |  |  |  |  |  | 
7 | O=C(c1ccccc1)[C@@H]1C[C@H](Sc2ccccc2)c2cc(Cl)ccc2N1 | > 100 | 48.4 | 74.5 | > 100 |  | 26.9 | 58.9 | > 100 | 37.4 |  |  |  |  |  |  |  |  |  |  | 
8 | C[N+]1(C)C/C(=C\c2ccccc2)C(=O)/C(=C/c2ccccc2)C1 | > 100 | > 100 | > 100 | > 100 | > 100 µM | > 100 | > 100 |  | > 100 |  |  |  |  |  |  |  |  |  |  | 
9 | O=Cc1ccccc1B(O)O | > 100 | > 100 | > 100 | 40.3 | > 100 µM |  | > 100 | > 100 | > 100 | > 100 |  |  |  |  |  |  |  |  |  | 
10 | Cc1cc(NS(=O)(=O)c2ccc(NC(=O)c3ccc(Cl)c4c(Nc5ccc(S(=O)(=O)N=C(N)N)cc5)c5ccccc5nc34)cc2)no1 | > 100 | > 100 | > 100 |  | > 100 µM |  | > 100 | > 100 | > 100 |  |  |  |  |  |  |  |  |  |  | 
11 | CNC(=O)CC1NC(=O)c2csc(n2)-c2ccc(-c3nc(C4=NC(C(=O)N5CCCC5C(N)=O)CO4)cs3)nc2-c2csc(n2)-c2csc(n2)C(C(C)C)NC(=O)CNC(=O)c2csc(n2)C(C(C)C)NC(=O)c2nc1sc2C (configuration not stated) | > 25 | > 25 |  |  | 6.03 µM and > 25 µM | > 25 | > 25 | > 25 | > 25 |  | > 25 | > 25 | > 25 | > 25 | > 25 | > 25 | > 25 µM |  |  | 
12 | CC[C@@]1(OC(=O)CN)C(=O)OCc2c1cc1n(c2=O)Cc2cc3c(N)cccc3nc2-1 | 3.32 | > 100 |  | 2.66 |  |  | > 20.1 | > 100 | 1.5 | > 100 | < 0.01 | 0.0774 | 0.211 | < 0.01 | 0.392 |  |  | 0.16 | 0.557 | 
13 | CN1CC[C@]2(C)c3cc(O)ccc3CC3CCCC1C32C (some centres not stated) |  | > 100 | > 100 | > 100 | > 100 µM | > 100 | > 100 | > 100 | > 100 |  |  |  |  |  |  |  |  |  |  | 
14 | COc1cc(C(O)C(=O)c2nc3ccc([N+](=O)[O-])cc3[nH]c2=O)ccc1O (configuration not stated) | > 100 | > 100 | > 100 | > 100 | > 100 µM | > 100 | > 100 | > 100 |  |  |  |  |  |  |  |  |  |  |  | 
15 | Cc1ccc(NC(=O)C(=O)CC(=O)c2c(C)n([O-])c3ccccc3[n+]2=O)cc1 | 96.3 | 96.2 | 60.1 | 55.2 | > 100 µM | 78.2 | > 100 | > 100 | 50.7 |  |  |  |  |  |  |  |  |  |  | 
16 | O=C1C2C=CC(C2)C(c2ccc(O)cc2)N1O (configuration not stated) | > 100 | > 100 | > 100 | > 100 | > 100 µM | > 100 | > 100 | > 100 | > 100 |  |  |  |  |  |  |  |  |  |  | 
17 | COc1ccc(/C(=N\O)c2cc(C)c(OC)c(C)c2)cc1O | > 100 | > 100 | > 100 |  | > 100 µM | 0.068 | > 100 | > 100 |  | > 100 | 0.0548 |  | 0.0279 | 0.0222 |  | 0.0166 | < 0.01 µM | < 0.01 | 20.9 | < 0.01
18 | CC(C)(CN1CCCCC1)C(=O)/C=C/c1ccc(Cl)cc1 | 16 | 12.1 | 9.79 | 17.5 | 23.5 µM | 15.1 | 22.6 | 17 | 19.9 |  |  |  |  |  |  |  |  |  |  | 
19 | Oc1[nH]c2c(Br)cccc2c1C1=Nc2ccccc2/C1=N/OCCN1CCCC1 | 3.35 |  |  | 4.81 |  |  | 5.49 |  |  |  | 1.93 | 2.67 | 1.14 | 0.813 | 0.524 |  | 1.06 µM and 0.751 µM | 0.824 | 1.92 | 1.94
20 | COc1cc(-n2cc(-c3ccc(Cl)cc3)nc2SCc2cccc(C#N)c2)cc(OC)c1OC | 74.7 | > 100 | > 100 | > 100 | > 100 µM | > 100 | > 100 | > 100 |  | > 100 | 48 |  | 20.9 | 39.4 | > 100 | 71.5 | 34.8 µM | 30.4 | 31.2 | > 100
21 | O=c1nc(NC(c2ccccc2)(c2ccccc2)c2ccccc2)ccn1CCNCCn1ccc(NC(c2ccccc2)(c2ccccc2)c2ccccc2)nc1=O | 49 | 32.4 | 69.3 | 35.6 | 46.1 µM | 20.5 | 22.2 | 23.4 | 23.3 |  |  |  |  |  |  |  |  |  |  | 
